Data published in US10526314B2, “Hydroxyalkyl-substituted heteroaryltriazole derivatives and uses thereof” (BAYER AKTIENGESELLSCHAFT, priority 2016, dated 2020).

Assays:
human V2 receptor = biological target: T1, human V2 receptor (Homo sapiens, UniProt P30518); test: Cellular in vitro assay for determining vasopressin receptor activity (V2, CRE-luciferase); assay type: cell-based; details: CHO cell line transfected with human V2 receptor; [Arg8]-vasopressin at EC50 concentration; read-out: IC50 hV2
T1 construct: expressed in transfected cells; host or cells: CHO K1 (ATCC) expressing firefly luciferase under a CRE-responsive promoter
Method: (§1) B-1. Cellular In Vitro Assay for Determining Vasopressin Receptor Activity
(§2) The identification of agonists and antagonists of the V1a and V2 vasopressin receptors from humans, rats and dogs as well as the quantification of the activity of the compounds of the invention is carried out using recombinant cell lines. These cell lines originally derive from a hamster's ovary epithelial cell (Chinese Hamster Ovary, CHO K1, ATCC: American Type Culture Collection, Manassas, Va. 20108, USA). The test cell lines constitutively express the human, rat or dog V1a or V2 receptors. In case of the Gαq-coupled V1a receptors, cells are also stably transfected with a modified form of the calcium-sensitive photoproteins aequorin (human and rat V1a) or obelin (dog V1a), which, after reconstitution with the cofactor coelenterazine, emit light when there are increases in free calcium concentrations [Rizzuto R, Simpson A W, Brini M, Pozzan T, Nature 358, 325-327 (1992); Illarionov B A, Bondar V S, Illarionova V A, Vysotski E S, Gene 153 (2), 273-274 (1995)]. The resulting vasopressin receptor cells react to stimulation of the recombinantly expressed V1a receptors by intracellular release of calcium ions, which can be quantified by the resulting photoprotein luminescence. The Gs-coupled V2 receptors are stably transfected into cell lines expressing the gene for firefly luciferase under control of a CRE-responsible promoter. Activation of V2 receptors induces the activation of the CRE-responsive promoter via cAMP increase, thereby inducing the expression of firefly luciferase. The light emitted by photoproteins of V1a cell lines as well as the light emitted by firefly luciferase of V2 cell lines corresponds to the activation or inhibition of the respective vasopressin receptor. The bioluminescence of the cell lines is detected using a suitable luminometer [Milligan G, Marshall F, Rees S, Trends in Pharmacological Sciences 17, 235-237 (1996)].
Vasopressin V2 Receptor Cell Lines:
On the day before the assay, the cells are plated out in culture medium (DMEM/F12, 2% FCS, 2 mM glutamine, 10 mM HEPES) in 384-well microtiter plates and kept in a cell incubator (96% humidity, 5% v/v CO2, 37° C.). On the day of the assay, test compounds in various concentrations and the agonist [Arg^8]-vasopressin at EC50 concentration are added together to the wells, and plates are incubated for 3 hours in a cell incubator. Upon addition of the cell lysis reagent Triton™ and the substrate luciferin, luminescence of firefly luciferase is measured in a luminometer.
(§3) Table 1A below lists individual IC50 values for the compounds of the invention (including racemic mixtures as well as separated enantiomers) that were obtained from cell lines transfected with the human V1a or V2 receptor: […]

human V1a receptor = biological target: T2, human V1a receptor (Homo sapiens, UniProt P37288); test: Cellular in vitro assay for determining vasopressin receptor activity (V1a, aequorin luminescence); assay type: cell-based; details: for IC50: CHO cell line transfected with human V1a receptor, [Arg8]-vasopressin at EC50 concentration, read-out: IC50 hV1a; for ratio IC50 hV2/hV1a: selectivity ratio IC50 hV2 / IC50 hV1a
T2 construct: expressed in transfected cells; host or cells: CHO K1 (ATCC), also stably transfected with a modified aequorin
Method: as §1, §2
Vasopressin V1a Receptor Cell Lines:
On the day before the assay, the cells are plated out in culture medium (DMEM/F12, 2% FCS, 2 mM glutamine, 10 mM HEPES, 5 μg/ml coelenterazine) in 384-well microtiter plates and kept in a cell incubator (96% humidity, 5% v/v CO2, 37° C.). On the day of the assay, test compounds in various concentrations are placed for 10 minutes in the wells of the microtiter plate before the agonist [Arg^8]-vasopressin at EC50 concentration is added. The resulting light signal is measured immediately in a luminometer.
as §3

T2 sequence (P37288 whole entry): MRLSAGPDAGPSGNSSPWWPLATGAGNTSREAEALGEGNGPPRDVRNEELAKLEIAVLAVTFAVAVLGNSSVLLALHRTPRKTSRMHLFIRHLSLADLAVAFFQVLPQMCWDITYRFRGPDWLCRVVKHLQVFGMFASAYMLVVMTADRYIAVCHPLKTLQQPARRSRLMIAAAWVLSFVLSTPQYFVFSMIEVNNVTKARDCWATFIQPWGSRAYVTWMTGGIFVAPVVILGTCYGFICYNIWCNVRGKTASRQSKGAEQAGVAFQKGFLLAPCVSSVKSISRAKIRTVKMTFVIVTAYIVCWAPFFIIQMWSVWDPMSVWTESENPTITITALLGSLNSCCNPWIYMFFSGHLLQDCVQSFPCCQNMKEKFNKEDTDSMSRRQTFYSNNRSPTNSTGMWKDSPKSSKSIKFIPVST
T1 sequence (P30518 whole entry): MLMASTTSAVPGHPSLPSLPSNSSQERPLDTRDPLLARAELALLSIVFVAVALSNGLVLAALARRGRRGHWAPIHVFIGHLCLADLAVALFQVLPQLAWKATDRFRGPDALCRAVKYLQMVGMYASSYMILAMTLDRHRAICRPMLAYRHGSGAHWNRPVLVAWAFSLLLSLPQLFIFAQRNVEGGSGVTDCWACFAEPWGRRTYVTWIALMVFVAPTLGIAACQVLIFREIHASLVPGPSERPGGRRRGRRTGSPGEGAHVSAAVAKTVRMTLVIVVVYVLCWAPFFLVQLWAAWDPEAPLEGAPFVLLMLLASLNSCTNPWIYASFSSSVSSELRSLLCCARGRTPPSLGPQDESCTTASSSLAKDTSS

| Structure (SMILES) | IC50 (human V2 receptor) [µM] | IC50 (human V1a receptor) [µM] | ratio IC50 hV2/hV1a (human V1a receptor) |
| --- | --- | --- | --- |
| C[C@H](O)c1nc(Cn2nc(-c3ccc(Cl)cc3)n(C[C@H](O)C(F)(F)F)c2=O)nn1-c1ccccn1 [Example 14, 5-(4-Chlorophenyl)-2-({5-[(1S)-1-hydroxyethyl]-1-(pyridin-2-yl)-1H-1,2,4-triazol-3-yl}methyl)-4-[(2S)-3,3,3-trifluoro-2-hydroxypropyl]-2,4-dihydro-3H-1,2,4-triazol-3-one] | 0.0655 | 0.00645 | 10.2 |
| C[C@H](O)c1nc(Cn2nc(-c3ccc(Cl)cc3)n(C[C@H](O)C(F)(F)F)c2=O)nn1-c1ncccc1OC(F)(F)F [Example 12, 5-(4-Chlorophenyl)-2-({5-[(1S)-1-hydroxyethyl]-1-[3-(trifluoromethoxy)pyridin-2-yl]-1H-1,2,4-triazol-3-yl}methyl)-4-[(2S)-3,3,3-trifluoro-2-hydroxypropyl]-2,4-dihydro-3H-1,2,4-triazol-3-one] | 0.0647 | 0.0057 | 11.3 |
| C[C@H](O)c1nc(Cn2nc(-c3ccc(Cl)cc3)n(C[C@H](O)C(F)(F)F)c2=O)nn1-c1cccc(F)n1 [Example 17, 5-(4-Chlorophenyl)-2-({1-(6-fluoropyridin-2-yl)-5-[(1S)-1-hydroxyethyl]-1H-1,2,4-triazol-3-yl}methyl)-4-[(2S)-3,3,3-trifluoro-2-hydroxypropyl]-2,4-dihydro-3H-1,2,4-triazol-3-one] | 0.0395 | 0.0145 | 2.7 |
| COc1nccnc1-n1nc(Cn2nc(-c3ccc(Cl)cc3)n(C[C@H](O)C(F)(F)F)c2=O)nc1[C@H](C)O [Example 21, 5-(4-Chlorophenyl)-2-({5-[(1S)-1-hydroxyethyl]-1-(3-methoxypyrazin-2-yl)-1H-1,2,4-triazol-3-yl}methyl)-4-[(2S)-3,3,3-trifluoro-2-hydroxypropyl]-2,4-dihydro-3H-1,2,4-triazol-3-one] | 0.046 | 0.049 | 0.9 |
| C[C@H](O)c1nc(Cn2nc(-c3ccc(Cl)cc3)n(C[C@H](O)C(F)(F)F)c2=O)nn1-c1ccc(Cl)cn1 [Example 15, 5-(4-Chlorophenyl)-2-({1-(5-chloropyridin-2-yl)-5-[(1S)-1-hydroxyethyl]-1H-1,2,4-triazol-3-yl}methyl)-4-[(2S)-3,3,3-trifluoro-2-hydroxypropyl]-2,4-dihydro-3H-1,2,4-triazol-3-one] | 0.0117 | 0.00825 | 1.4 |
| C[C@@H](O)c1nc(Cn2nc(-c3ccc(Cl)cc3)n(C[C@H](O)C(F)(F)F)c2=O)nn1-c1ncccc1Cl [Example 5, 5-(4-Chlorophenyl)-2-({1-(3-chloropyridin-2-yl)-5-[(1R)-1-hydroxyethyl]-1H-1,2,4-triazol-3-yl}methyl)-4-[(2S)-3,3,3-trifluoro-2-hydroxypropyl]-2,4-dihydro-3H-1,2,4-triazol-3-one] | 0.027 | 0.00135 | 20.0 |
| C[C@H](O)c1nc(Cn2nc(-c3ccc(Cl)cc3)n(C[C@H](O)C(F)(F)F)c2=O)nn1-c1cnccc1Cl [Example 2, 5-(4-Chlorophenyl)-2-({1-(4-chloropyridin-3yl)-5-[(1S)-1-hydroxyethyl]-1H-1,2,4-triazol-3-yl}methyl)-4-[(2S)-3,3,3-trifluoro-2-hydroxypropyl]-2,4-dihydro-3H-1,2,4-triazol-3-one] | 0.00565 | 0.00053 | 10.7 |
| COc1cccnc1-n1nc(Cn2nc(-c3ccc(Cl)cc3)n(C[C@H](O)C(F)(F)F)c2=O)nc1[C@H](C)O [Example 8, 5-(4-Chlorophenyl)-2-({5-[(1S)-1-hydroxyethyl]-1-(3-methoxypyridin-2-yl)-1H-1,2,4-triazol-3-yl}methyl)-4-[(2S)-3,3,3-trifluoro-2-hydroxypropyl]-2,4-dihydro-3H-1,2,4-triazol-3-one] | 0.0094 | 0.00365 | 2.6 |
| C[C@H](O)c1nc(Cn2nc(-c3ccc(Cl)cc3)n(C[C@H](O)C(F)(F)F)c2=O)nn1-c1cnccn1 [Example 19, 5-(4-Chlorophenyl)-2-({5-[(1S)-1-hydroxyethyl]-1-(pyrazin-2-yl)-1H-1,2,4-triazol-3-yl}methyl)-4-[(2S)-3,3,3-trifluoro-2-hydroxypropyl]-2,4-dihydro-3H-1,2,4-triazol-3-one] | 0.32 | 0.0295 | 10.8 |
| CC(O)c1nc(Cn2nc(-c3ccc(Cl)cc3)n(C[C@H](O)C(F)(F)F)c2=O)nn1-c1cncc(Cl)c1 (mixture of isomers) [Example 27, 5-(4-Chlorophenyl)-2-({1-(5-chloropyridin-3-yl)-5-(1hydroxyethyl)-1H-1,2,4triazol-3-yl}methyl)-4-[(2S)-3,3,3-trifluoro-2-hydroxypropyl]-2,4-dihydro-3H-1,2,4-triazol-3-one] | 0.0187 | 0.0123 | 1.5 |
| CC(O)c1nc(Cn2nc(-c3ccc(Cl)cc3)n(C[C@H](O)C(F)(F)F)c2=O)nn1-c1cccnc1 (single isomer, unassigned) [Example 26] | 0.325 | 0.0343 | 9.5 |
| C[C@H](O)c1nc(Cn2nc(-c3ccc(Cl)cc3)n(C[C@H](O)C(F)(F)F)c2=O)nn1-c1ccncc1 [Example 18, 5-(4-Chlorophenyl)-2-({5-[(1S)-1-hydroxyethyl]-1-(pyridin-4-yl)-1H-1,2,4-triazol-3-yl}methyl)-4-[(2S)-3,3,3-trifluoro-2-hydroxypropyl]-2,4-dihydro-3H-1,2,4-triazol-3-one] | 0.199 | 0.0286 | 7.0 |
| C[C@H](O)c1nc(Cn2nc(-c3ccc(Cl)cc3)n(C[C@H](O)C(F)(F)F)c2=O)nn1-c1nccs1 [Example 10, 5-(4-Chlorophenyl)-2-({5-[(1S)-1-hydroxyethyl]-1-(1,3-thiazol-2-yl)-1H-1,2,4-triazol-3-yl}methyl)-4-[(2S)-3,3,3-trifluoro-2-hydroxypropyl]-2,4-dihydro-3H-1,2,4-triazol-3-one] | 0.105 | 0.00425 | 24.7 |
| C[C@H](O)c1nc(Cn2nc(-c3ccc(Cl)cc3)n(C[C@H](O)C(F)(F)F)c2=O)nn1-c1nccn1C [Example 22, 5-(4-Chlorophenyl)-2-({5-[(1S)-1-hydroxyethyl]-1-(1-methyl-1H-imidazol-2-yl)-1H-1,2,4-triazol-3-yl}methyl)-4-[(2S)-3,3,3-trifluoro-2-hydroxypropyl]-2,4-dihydro-3H-1,2,4-triazol-3-one] | 0.138 | 0.0681 | 2.0 |
| C[C@@H](O)c1nc(Cn2nc(-c3ccc(Cl)cc3)n(C[C@H](O)C(F)(F)F)c2=O)nn1-c1ccncc1Cl [Example 6, 5-(4-Chlorophenyl)-2-({1-(3-chloropyridin-4-yl)-5-[(1R)-1-hydroxyethyl]-1H-1,2,4-triazol-3-yl}methyl)-4-[(2S)-3,3,3-trifluoro-2-hydroxypropyl]-2,4-dihydro-3H-1,2,4-triazol-3-one] | 0.0403 | 0.00235 | 17.2 |
| C[C@@H](O)c1nc(Cn2nc(-c3ccc(Cl)cc3)n(C[C@H](O)C(F)(F)F)c2=O)nn1-c1c(Cl)cncc1Cl [Example 4, 5-(4-Chlorophenyl)-2-({1-(3,5-dichloropyridin-4-yl)-5-[(1R)-1-hydroxyethyl]-1H-1,2,4-triazol-3-yl}methyl)-4-[(2S)-3,3,3-trifluoro-2-hydroxypropyl]-2,4-dihydro-3H-1,2,4-triazol-3-one] | 0.00865 | 0.0013 | 6.7 |
| CC(O)c1nc(Cn2nc(-c3ccc(Cl)cc3)n(C[C@H](O)C(F)(F)F)c2=O)nn1-c1cccnc1 (mixture of isomers) [Example 24] | 0.773 | 0.0491 | 15.8 |
